Test results as given in patent US5055302A, “Neuropeptide control of ocular growth” (Trustees of the University of Pennsylvania, priority 1990, dated 1991).
Entries after “also recorded” stand apart in the source; their conditions may differ.

Legend:
lid-sutured eyes = experiment: Form deprivation myopia induced by eyelid suture in chicks; VIP given daily by subconjunctival injection to the sutured eye, ocular dimensions measured with calipers; type: in vivo, White Leghorn chicks; settings: for Axial length (deprived minus control eye), mean ± S.E.M. / Equatorial diameter (deprived minus control eye), mean ± S.E.M.: subconjunctival
Method: (§1) Form deprivation myopia in day-old White Leghorn chicks was induced by eyelid suture under aseptic conditions and ether anesthesia. One eyelid of the chicks was sutured. […] Translucent vision is permitted through the eyelid. The contralateral unsutured open eye served as the control eye. VIP was administered daily to the deprived, or sutured, eye. Saline was administered to the unsutured eye. All agents were given under ether anesthesia by subconjunctival injection. The chicks were maintained on a 12 hour light/dark cycle. The birds were killed at ages up to 4 weeks by decapitation under deep pentobarbital anesthesia. Axial and equatorial dimensions of unfixed eyes were measured with vernier calipers.
(§2) VIP (porcine VIP, Peninsula Laboratories, Inc. Belmont Calif.) was administered in three (descending) dose levels to lid-sutured eyes of 23 chicks and to one eye of an additional 15 chicks which had both eyes open.

open eyes = experiment: Effect of VIP on growth of open eyes (control chicks with both eyes open, one eye treated); type: in vivo, White Leghorn chicks; settings: for Axial length (treated eye minus untreated eye), mean ± S.E.M. / Equatorial diameter (treated eye minus untreated eye), mean ± S.E.M.: open eyes, subconjunctival
Method: as §1, §2

CC[C@H](C)[C@H](NC(=O)[C@H](CO)NC(=O)[C@H](CC(N)=O)NC(=O)[C@H](CC(C)C)NC(=O)[C@H](Cc1ccc(O)cc1)NC(=O)[C@H](CCCCN)NC(=O)[C@H](CCCCN)NC(=O)[C@@H](NC(=O)[C@H](C)NC(=O)[C@H](CCSC)NC(=O)[C@H](CCC(N)=O)NC(=O)[C@H](CCCCN)NC(=O)[C@H](CCCNC(=N)N)NC(=O)[C@H](CC(C)C)NC(=O)[C@H](CCCNC(=N)N)NC(=O)[C@@H](NC(=O)[C@H](Cc1ccc(O)cc1)NC(=O)[C@H](CC(N)=O)NC(=O)[C@H](CC(=O)O)NC(=O)[C@@H](NC(=O)[C@H](Cc1ccccc1)NC(=O)[C@@H](NC(=O)[C@H](C)NC(=O)[C@H](CC(=O)O)NC(=O)[C@H](CO)NC(=O)[C@@H](N)Cc1c[nH]cn1)C(C)C)[C@@H](C)O)[C@@H](C)O)C(C)C)C(=O)N[C@@H](CC(C)C)C(=O)N[C@@H](CC(N)=O)C(N)=O [VIP, vasoactive intestinal peptide]
Block of axial elongation (lid-sutured eyes; 0.25 μg dose): ~80%
Treatment effect on axial length, one way analysis of variance (lid-sutured eyes; (p<0.05)): significant treatment effects
Treatment effect on equatorial diameters (lid-sutured eyes; VIP treatment, all doses): no significant treatment effects
Axial length (deprived minus control eye), mean ± S.E.M. (lid-sutured eyes; daily dose 0.025 μg): 0.17 ± 0.10 mm
Equatorial diameter (deprived minus control eye), mean ± S.E.M. (lid-sutured eyes; daily dose 0.025 μg): 0.91 ± 0.05 mm
Axial length (deprived minus control eye), mean ± S.E.M. (lid-sutured eyes; daily dose 0.25 μg): 0.07 ± 0.07 mm
Equatorial diameter (deprived minus control eye), mean ± S.E.M. (lid-sutured eyes; daily dose 0.25 μg): 0.92 ± 0.04 mm
Effective range of the peptide (lid-sutured eyes; daily dose 2.5 μg): outside the effective range
Axial length (deprived minus control eye), mean ± S.E.M. (lid-sutured eyes; daily dose 2.5 μg): 0.34 ± 0.15 mm
Equatorial diameter (deprived minus control eye), mean ± S.E.M. (lid-sutured eyes; daily dose 2.5 μg): 0.90 ± 0.10 mm
Treatment effect on axial length, one way analysis of variance (lid-sutured eyes; dose 0.25 μg (p<0.001)): profound treatment effect; also recorded: significant treatment effects
Treatment effect on axial or equatorial diameters (open eyes; controls (both eyes open), all three levels of VIP): no significant treatment effect
Axial length (treated eye minus untreated eye), mean ± S.E.M. (open eyes; daily dose 0.025 μg): 0.008 ± 0.10 mm
Equatorial diameter (treated eye minus untreated eye), mean ± S.E.M. (open eyes; daily dose 0.025 μg): 0.07 ± 0.04 mm
Axial length (treated eye minus untreated eye), mean ± S.E.M. (open eyes; daily dose 0.25 μg): 0.03 ± 0.05 mm
Equatorial diameter (treated eye minus untreated eye), mean ± S.E.M. (open eyes; daily dose 0.25 μg): 0.02 ± 0.02 mm
Axial length (treated eye minus untreated eye), mean ± S.E.M. (open eyes; daily dose 2.5 μg): 0.13 ± 0.06 mm
Equatorial diameter (treated eye minus untreated eye), mean ± S.E.M. (open eyes; daily dose 2.5 μg): -0.01 ± 0.06 mm
